US4107202A, “Substituted 4,4'-biphenylylene bis(2-thioureylene)di-naphthalenetrisulfonic acids and salts thereof” (American Cyanamid Company, priority 1977, dated 1978)
Where a name gives a salt, the structure may show the parent alone.

Columns and labels:
[1] = system: late components of human complement (C3-C9); test: Test, Code 035 (C3-C9 inhibitor): lysis of EAC 142 by late components of human complement; assay type: cell-based; parameters: key: Negative; conditions: activity in wells, two-fold serial dilution assay
shunt pathway = test: Test, Code 036 (C-Shunt inhibitor): lysis of fragile human erythrocytes in autologous serum via the shunt pathway activated by cobra venom factor; assay type: cell-based; parameters: key: Negative; conditions: activity in wells, two-fold serial dilution assay
whole complement = test: Complement Level Reduction Test: whole complement in serum of dosed guinea pigs, capillary tube assay; assay type: in vivo, guinea pig; conditions: 200 mg/kg
Source text: An active inhibitor protects C2 from C1 and C4; (ii) Test, Code 035 (C3-C9 inhibitor) -- This test determines the ability of the late components of human complement (C3-C9) to lyse EAC 142 in the presence of appropriate dilutions of the test compound. An active inhibitor protects EAC 142 from lysis by C3-C9; (iii) Test, Code 036 (C-Shunt inhibitor) -- In this test human erythrocytes rendered fragile are lysed in autologous serum via the shunt pathway activated by cobra venom factor in the presence of appropriate dilutions of the test compound. Inhibition of the shunt pathway results in failure of lysis; (iv) Forssman Vasculitis Test -- Here, the well known complement dependent lesion, Forssman vasculitis, is produced in guinea pigs by intradermal injection of rabbit anti-Forssman antiserum. The lesion is measured in terms of diameter, edema and hemorrhage and the extent to which a combined index of these is inhibited by prior intraperitoneal injection of the test compound at 200 mg/kg is then reported, unless otherwise stated; (v) Forssman Shock Test -- Lethal shock is produced in guinea pigs by an i.v. injection of anti-Forssman antiserum and the harmonic mean death time of treated guinea pigs is compared with that of simultaneous controls; (vi) Complement Level Reduction Test -- In this test, the above dosed guinea pigs, or others, are bled for serum and the complement level is determined in undiluted serum by the capillary tube method of U.S. Pat. No. 3,876,376 and compared to undosed control guinea pigs; and (vii) Cap 50 Test -- Here, appropriate amounts of the test compound are added to a pool of guinea pig serum in vitro, after which the undiluted serum capillary tube assay referred to above is run. The concentration of compound inhibiting 50% is reported.
With reference to Table I, guinea pigs weighing about 300 g were dosed intravenously (i.v.) or intraperitoneally (i.p.) with 200 mg/kg of the test compound dissolved in saline and adjusted to pH 7-8. One hour after dosing, the guinea pigs were decapitated, blood was collected and the serum separated. The serum was tested for whole complement using the capillary tube assay. Percent inhibition was calculated by comparison with simultaneous controls. The results appear in Table I together with results of tests, code 026, 035, 036, Cap 50, % inhibition and Forssman shock.

complement system = conditions: reported in literature; cited from earlier work
[2] = The New England Journal of Medicine, 286, 808-812 (1972); cited from earlier work

## O=S(=O)(O)c1cc(NC(=S)Nc2ccc(-c3ccc(NC(=S)Nc4cc(S(=O)(=O)O)cc5cc(S(=O)(=O)O)cc(S(=O)(=O)O)c45)cc3S(=O)(=O)O)c(S(=O)(=O)O)c2)c2c(S(=O)(=O)O)cc(S(=O)(=O)O)cc2c1 [8,8'-[(2,2'-Disulfo-4,4'-biphenylylene)bis(2-thioureylene)]di-1,3,6-naphthalenetrisulfonic acid octasodium salt]
[1]
  C-Late 035 Wells: N
Shunt pathway
  Shunt Inhibition 036 Wells: N
Whole complement; intraperitoneal, 30 min
  In Vivo Activity (Guinea Pig) % Inhibition: -55%
Whole complement; intraperitoneal, 60 min
  In Vivo Activity (Guinea Pig) % Inhibition: -55%
Whole complement; intraperitoneal, 120 min
  In Vivo Activity (Guinea Pig) % Inhibition: -70%
Whole complement; intravenous, 2 min
  In Vivo Activity (Guinea Pig) % Inhibition: -92%
Whole complement; intravenous, 30 min
  In Vivo Activity (Guinea Pig) % Inhibition: -46%
Whole complement; intravenous, 120 min
  In Vivo Activity (Guinea Pig) % Inhibition: -31%

## Cc1ccc(C(=O)Nc2ccc(S(=O)(=O)O)c3cc(S(=O)(=O)O)cc(S(=O)(=O)O)c23)cc1NC(=O)c1cccc(NC(=O)Nc2cccc(C(=O)Nc3cc(C(=O)Nc4ccc(S(=O)(=O)O)c5cc(S(=O)(=O)O)cc(S(=O)(=O)O)c45)ccc3C)c2)c1 [Suramin]
Complement system
  complement inhibiting / anticomplementary effect: competitive inhibitor of the complement system

## Nc1ccc2cc(S(=O)(=O)O)cc(O)c2c1N=Nc1ccc(NC(=O)Nc2ccc(N=Nc3c(N)ccc4cc(S(=O)(=O)O)cc(O)c34)c(S(=O)(=O)O)c2)cc1S(=O)(=O)O [chlorazol fast pink, 3,3'-ureylenebis-[6-(2-amino-8-hydroxy-6-sulfo-1-naphthylazo)]benzenesulfonic acid, tetrasodium salt]
Complement system
  complement inhibiting / anticomplementary effect: anticomplementary effect

## NCCCCCC(=O)O [epsilon-aminocapronic acid]
[2]
  use in the treatment of hereditary angioneurotic edema: used with success

## NC[C@H]1CC[C@H](C(=O)O)CC1 [tranexamic acid]
[2]
  use in the treatment of hereditary angioneurotic edema: used with success

## heparin
Complement system
  complement inhibiting / anticomplementary effect: anticomplementary effect
